ChEMBL document CHEMBL1201862, “PubChem BioAssay data set” (2004)
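All cell lines were grown in 96-well plates and treated with compound for 48 hours. GI50: concentration for 50% inhibition of growth.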 The source made the active and inactive calls. Cut-off read from the data, not from the text of the source: active = GI50 up to about 1.1 µM and inactive = higher.

Tests used:
Experiment in all cases: growth of human tumour cells (NCI), 48 h
NCI/ADR-RES = tested on: NCI/ADR-RES
ACHN = tested on: ACHN
SR = tested on: SR
MDA-N = tested on: MDA-N
HCT-15 = tested on: HCT-15
CAKI-1 = tested on: CAKI-1
M14 = tested on: M14
MCF7 = tested on: MCF7
A498 = tested on: A498
HOP-18 = tested on: HOP-18
DLD-1 = tested on: DLD-1
DMS-273 = tested on: DMS-273
KM-20L2 = tested on: KM-20L2
XF498 = tested on: XF498
RXF 393 = tested on: RXF 393
SNB-78 = tested on: SNB-78
M19-MEL = tested on: M19-MEL
DMS-114 = tested on: DMS-114
TK-10 = tested on: TK-10
LXFL 529 = tested on: LXFL 529

SMILES	GI50 (NCI/ADR-RES)	GI50 (ACHN)	GI50 (SR)	GI50 (MDA-N)	GI50 (HCT-15)	GI50 (CAKI-1)	GI50 (M14)	GI50 (MCF7)	GI50 (A498)	GI50 (HOP-18)	GI50 (DLD-1)	GI50 (DMS-273)	GI50 (KM-20L2)	GI50 (XF498)	GI50 (RXF 393)	GI50 (SNB-78)	GI50 (M19-MEL)	GI50 (DMS-114)	GI50 (TK-10)	GI50 (LXFL 529)
O=C1CCC[C@H]2O[C@@H](COC(=O)c3ccccc3)C[C@H]2O1	> 100 µM (inactive)	> 100 µM (inactive)	> 100 µM (inactive)	> 100 µM (inactive)	> 100 µM	> 100 µM (inactive)	> 100 µM (inactive)	> 100 µM (inactive)	> 100 µM (inactive)											
CN(C)C(=O)N(CCCl)N=O	> 100 µM (inactive)				> 100 µM	> 100 µM (inactive)		> 100 µM (inactive)	> 100 µM (inactive)	> 100 µM (inactive)	> 100 µM (inactive)	> 100 µM (inactive)	> 100 µM (inactive)	> 81.1 µM (inactive)	> 100 µM (inactive)	> 100 µM (inactive)	> 100 µM (inactive)	> 100 µM (inactive)		
CC(C)OP(=O)(OC(C)C)C1=NN(c2ccc([N+](=O)[O-])cc2)C(P(=O)(OC(C)C)OC(C)C)=NN1c1ccc([N+](=O)[O-])cc1		> 100 µM (inactive)	9.08 µM (inactive)		9.18 µM	63.5 µM (inactive)	> 100 µM (inactive)			> 100 µM (inactive)	5.32 µM (inactive)	22.5 µM (inactive)	> 100 µM (inactive)	7.98 µM (inactive)	> 100 µM (inactive)		> 100 µM (inactive)	12.8 µM (inactive)	> 100 µM (inactive)	22.9 µM (inactive)
CCCCc1nccc2c(C)c3[nH]c4ccccc4c3cc12	1.71 µM (inactive)				2.07 µM	2.59 µM (inactive)		2.69 µM (inactive)	4.67 µM (inactive)	0.486 µM (active)	2.81 µM (inactive)	0.883 µM (active)	2.86 µM (inactive)		2.22 µM (inactive)	5.64 µM (inactive)	3.1 µM (inactive)	1.59 µM (inactive)		
COC1C(=O)CCC2(CO2)C1(O)C1(C)OC1CC=C(C)C (stereo not drawn)		17.6 µM (inactive)	13.9 µM (inactive)	41 µM (inactive)	19 µM	38.1 µM (inactive)	11.1 µM (inactive)	11.8 µM (inactive)	26.3 µM (inactive)						22.9 µM (inactive)				22.9 µM (inactive)	
Cc1ccc(C2C(Cl)C(=O)N2NC(=O)c2ccc(N)cc2)cc1 (stereo not drawn)		31.9 µM (inactive)			15.7 µM	20.1 µM (inactive)	18.7 µM (inactive)		22.5 µM (inactive)		20.5 µM (inactive)	2.46 µM (inactive)	23.8 µM (inactive)	13.3 µM (inactive)		5.46 µM (inactive)	19.8 µM (inactive)	10.2 µM (inactive)	43.6 µM (inactive)	15.5 µM (inactive)
C=C(C[C@@H](O)[C@H](C)NC(=O)OCc1ccccc1)C(=O)OC(C)(C)C	66.2 µM (inactive)	> 100 µM (inactive)	29.6 µM (inactive)	29.7 µM (inactive)	> 100 µM	53.6 µM (inactive)	> 100 µM (inactive)	61.7 µM (inactive)	> 100 µM (inactive)										> 100 µM (inactive)	
C1=C(c2ccccc2)SC(N2CCCCC2)S1 (stereo not drawn)			90.8 µM (inactive)		> 100 µM		> 100 µM (inactive)		> 100 µM (inactive)		> 100 µM (inactive)	> 100 µM (inactive)	> 100 µM (inactive)	> 100 µM (inactive)	> 100 µM (inactive)	> 100 µM (inactive)	68.1 µM (inactive)	60.1 µM (inactive)	> 100 µM (inactive)	77.3 µM (inactive)
Cc1ccc(S(=O)(=O)Oc2cc(-c3ccccc3)nc3ccccc23)cc1	1.95 µM (inactive)				1.41 µM			0.604 µM (active)	2.36 µM (inactive)	7.62 µM (inactive)	2.49 µM (inactive)	1.04 µM (active)	1.57 µM (inactive)	3.91 µM (inactive)	2.95 µM (inactive)	7.08 µM (inactive)	3.3 µM (inactive)	0.333 µM (active)		
O=C(NCCN(CCNC(=O)c1cccc(=O)n1O)CCNC(=O)c1cccc(=O)n1O)c1cccc(=O)n1O	> 100 µM (inactive)	> 100 µM (inactive)	> 100 µM (inactive)	> 100 µM (inactive)	> 100 µM	> 100 µM (inactive)	> 100 µM (inactive)	> 100 µM (inactive)	> 100 µM (inactive)						> 100 µM (inactive)				> 100 µM (inactive)	
CC(=O)c1sc(Nc2nnc(-c3ccc(-c4nnc(Nc5nc(C)c(C(C)=O)s5)o4)cc3)o2)nc1C		> 100 µM (inactive)	> 100 µM (inactive)		> 100 µM	> 10 µM (inactive)	> 100 µM (inactive)		> 100 µM (inactive)	> 100 µM (inactive)	> 100 µM (inactive)	> 100 µM (inactive)	> 100 µM (inactive)		> 100 µM (inactive)	> 100 µM (inactive)		> 100 µM (inactive)	> 100 µM (inactive)	> 100 µM (inactive)
O=S1(=O)C(=C(c2ccccc2)c2ccccc2)S(=O)(=O)c2ccccc21	> 100 µM (inactive)				> 100 µM	> 87.5 µM (inactive)		7.46 µM (inactive)	> 74.3 µM (inactive)	51.6 µM (inactive)	> 100 µM (inactive)	> 100 µM (inactive)	> 100 µM (inactive)	24.7 µM (inactive)	34.1 µM (inactive)	39.8 µM (inactive)	> 100 µM (inactive)	65.3 µM (inactive)		
CCC12CCC(O)C1N(C)CCC2Sc1ccccc1 (stereo not drawn)		> 100 µM (inactive)			> 100 µM		> 100 µM (inactive)		> 100 µM (inactive)	46.7 µM (inactive)		> 100 µM (inactive)	41.3 µM (inactive)	26.4 µM (inactive)	> 100 µM (inactive)	> 100 µM (inactive)	> 100 µM (inactive)	82.4 µM (inactive)	> 100 µM (inactive)	
COc1ccc(/C(Cl)=C(\C=O)c2ccc(Cl)cc2)cc1		3.27 µM (inactive)	2.69 µM (inactive)		3.41 µM	9.51 µM (inactive)	14.1 µM (inactive)		30.1 µM (inactive)	30.3 µM (inactive)	4.85 µM (inactive)	4.34 µM (inactive)	6.41 µM (inactive)		10.7 µM (inactive)	6.85 µM (inactive)	9.77 µM (inactive)	4.15 µM (inactive)	6.15 µM (inactive)	9.23 µM (inactive)
Cc1cn([C@@H]2C[C@H](CO)[C@@H](O)C2)c(=O)[nH]c1=O		> 100 µM (inactive)			> 100 µM		> 100 µM (inactive)			> 100 µM (inactive)	> 100 µM (inactive)	> 100 µM (inactive)	> 100 µM (inactive)	> 100 µM (inactive)		> 100 µM (inactive)	> 100 µM (inactive)	> 100 µM (inactive)		> 100 µM (inactive)
